Measured values as given in patent publication US20260097047A1, “Small molecule inhibitors of the ribosome biogenesis factor NVL2” (Board of Regents, The University of Texas System, priority 2023, published 2026).
Like-named read-outs stand apart in the source and are kept apart here.

Tested on: HCT116 cells
Test: Cell viability assay (CellTiter-Glo, 72 hours) in HCT116 human colorectal cancer cells
Format: cell-based
Settings: read-out: Activity
Method in brief: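 Ten-point IC50 came from an asymmetric five-parameter fit of luminescence corrected to vehicle wells. ATP content was measured by CellTiter-Glo 72 h after dosing at 37 °C. Cells were seeded at 2,000/well the day before, with 0.5% DMSO in all wells.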

[1] = Homo sapiens, HCT-116, Table 5, HCT116, 72 hours
[2] = Homo sapiens, HCT-116, Table 1, HCT116, 72 hours
[3] = Homo sapiens, HCT-116, Table 3, HCT116, 72 hours

CCC/C=C/CN1C(=O)c2ccccc2Sc2cc(Nc3cc4ccccc4cn3)ccc21 [(E)-10-(Hex-2-en-1-yl)-7-(isoquinolin-3-ylamino)dibenzo[b,f][1,4]thiazepin-11 (10H)-one]
IC50 [1]: < 500 nM

CCC/C=C/CN1C(=O)c2ccccc2Sc2cc(Nc3cnccn3)ccc21 [(E)-10-(Hex-2-en-1-yl)-7-(pyrazin-2-ylamino)dibenzo[b,f][1,4]thiazepin-11 (10H)-one]
IC50 [1]: < 500 nM

CCC/C=C/CN1C(=O)c2ccccc2Sc2cc(Nc3ccccn3)ccc21 [(E)-10-(Hex-2-en-1-yl)-7-(pyridin-2-ylamino)dibenzo[b,f][1,4]thiazepin-11 (10H)-one]
IC50 [1]: 500 to 1000 nM

CCC/C=C/CN1C(=O)c2ccccc2Sc2cc(Nc3ncccn3)ccc21 [(E)-10-(Hex-2-en-1-yl)-7-(pyrimidin-2-ylamino)dibenzo[b,f][1,4]thiazepin-11 (10H)-one]
IC50 [1]: 1000 to 5000 nM

CCC/C=C/CN1C(=O)c2ccccc2Sc2cc(Nc3cc(C(F)(F)F)ccn3)ccc21 [(I)-10-(Hex-2-en-1-yl)-7-((4-(trifluoromethyl)pyridin-2-yl)amino)dibenzo[b,f][1,4]thiazepin-11 (10H)-one]
IC50 (Table 5, HCT116, 72 hours): 1000 to 5000 nM

CCCCCCN1C(=O)c2ccccc2Sc2cc(NC(=O)c3ccoc3)ccc21 [-nHexyl; furan-3-yl; CH/CH; S]
IC50 (Table 7, cell viability assay, CellTiter-Glo, 72 hours, scaffold drawing 42 with R^2, R^3, X/Y, Z): < 500 nM

CC#CCN1C(=O)c2ccccc2Sc2cc(Nc3ncccc3C(=O)OC)ccc21 [Methyl 2-((10-(but-2-yn-1-yl)-11-oxo-10,11-dihydrodibenzo[b,f][1,4]thiazepin-7-yl)amino) nicotinate]
IC50 (Table 5, HCT116, 72 hours): 1000 to 5000 nM

CC#CCN1C(=O)c2ccccc2C(C)c2cc(NC(=O)c3ccc4oc(=O)n(C)c4c3)ccc21 (centres unmarked) [N-(5-(But-2-yn-1-yl)-11-methyl-6-oxo-6,11-dihydro-5H-dibenzo[b,e]azepin-2-yl)-3-methyl-2-oxo-2,3-dihydrobenzo[d]oxazole-5-carboxamide]
IC50 (Homo sapiens, HCT-116, Table 9, HCT116, 72 hours): < 500 nM

C#CCOCCN1C(=O)c2ccccc2Sc2cc(NC(=O)N3CCC3)ccc21 [N-(11-Oxo-10-(2-(prop-2-yn-1-yloxy)ethyl)-10,11-dihydrodibenzo[b,f][1,4]thiazepin-7-yl) azetidine-1-carboxamide]
IC50 [2]: < 500 nM

CC#CCN1C(=O)c2ccccc2Sc2cc(NC(=O)N3CCC3)ccc21 [Table 1: —CH2CCMe; azetidin-1-yl; CH; CH, N-(10-(But-2-yn-1-yl)-11-oxo-10,11-dihydrodibenzo[b,f][1,4]thiazepin-7-yl) azetidine-1-carboxamide]
IC50 [2]: < 500 nM

CC#CCN1C(=O)c2ccccc2Sc2cc(NC(=O)N3CCC3)cnc21 [Table 1: —CH2CCMe; azetidin-1-yl; CH; N]
IC50 (Table 1, HCT116, 72 hours): < 500 nM

CC#CCN1C(=O)c2ccccc2Sc2cc(NC(=O)N3CCCCC3)cnc21 [Table 1: —CH2CCMe; piperidin-1-yl; CH; N]
IC50 (Table 1, HCT116, 72 hours): < 500 nM

CC#CCN1C(=O)c2ccccc2Sc2cc(NC(=S)N3CCC3)ccc21 [Table 2: —CH2CCMe; azetidin-1-yl; CH; CH]
IC50 (Table 2, HCT116, 72 hours): < 500 nM

CC#CCN1C(=O)c2ccccc2Sc2cc(NC(=S)N3CCC3)cnc21 [Table 2: —CH2CCMe; azetidin-1-yl; CH; N]
IC50 (Table 2, HCT116, 72 hours): < 500 nM

CC#CCN1C(=O)c2ccccc2Sc2cc(NC(=S)N3CCCCC3)cnc21 [Table 2: —CH2CCMe; piperidin-1-yl; CH; N]
IC50 (Table 2, HCT116, 72 hours): < 500 nM

C#CCOCCN1C(=O)c2ccccc2Sc2cc(NC(=O)Nc3ccccc3)ccc21 [Table 3: —(CH2)2OCH2CCH; Ph; CH/CH, 1-(11-Oxo-10-(2-(prop-2-yn-1-yloxy)ethyl)-10,11-dihydrodibenzo[b,f][1,4]thiazepin-7-yl)-3-phenylurea]
IC50 [3]: < 500 nM

C#CCOCCN1C(=O)c2ccccc2Sc2cc(NC(=O)NC3CCCCC3)ccc21 [Table 3: —(CH2)2OCH2CCH; cHex; CH/CH, 1-Cyclohexyl-3-(11-oxo-10-(2-(prop-2-yn-1-yloxy)ethyl)-10,11-dihydrodibenzo[b,f][1,4]thiazepin-7-yl) urea]
IC50 [3]: < 500 nM

CC#CCN1C(=O)c2ccccc2Sc2cc(NC(=O)Nc3cccc(OCF)c3)ccc21 [Table 3: —CH2CCMe; 3-FH2COPh; CH/CH]
IC50 (Table 3, HCT116, 72 hours): < 500 nM

CC#CCN1C(=O)c2ccccc2Sc2cc(NC(=O)NC3CC(COC)C3)ccc21 (centres unmarked) [Table 3: —CH2CCMe; 3-MeOCH2-cBu; CH/CH]
IC50 (Table 3, HCT116, 72 hours): < 500 nM

CC#CCN1C(=O)c2ccccc2Sc2cc(NC(=O)NC3CC(COC)C3)cnc21 (centres unmarked) [Table 3: —CH2CCMe; 3-MeOCH2-cBu; CH/N]
IC50 (Table 3, HCT116, 72 hours): < 500 nM

CC#CCN1C(=O)c2ccccc2Sc2cc(NC(=O)Nc3cccc(OC)c3)ccc21 [Table 3: —CH2CCMe; 3-MeOPh; CH/CH]
IC50 (Table 3, HCT116, 72 hours): < 500 nM

CC#CCN1C(=O)c2ccccc2Sc2cc(NC(=O)Nc3ccc(OC(F)F)cc3)ccc21 [Table 3: —CH2CCMe; 4-F2HCOPh; CH/CH, 1-(10-(But-2-yn-1-yl)-11-oxo-10,11-dihydrodibenzo[b,f][1,4]thiazepin-7-yl)-3-(4-(difluoromethoxy)phenyl) urea]
IC50 [3]: < 500 nM

CC#CCN1C(=O)c2ccccc2Sc2cc(NC(=O)Nc3ccc(OC)cc3)ccc21 [Table 3: —CH2CCMe; 4-MeOPh; CH/CH]
IC50 (Table 3, HCT116, 72 hours): < 500 nM

CC#CCN1C(=O)c2ccccc2Sc2cc(NC(=O)Nc3ccc(OC)cc3)cnc21 [Table 3: —CH2CCMe; 4-MeOPh; CH/N]
IC50 (Table 3, HCT116, 72 hours): < 500 nM

CC#CCN1C(=O)c2ccccc2Sc2cc(NC(=O)N[C@H]3C[C@@H](OC)C3)cnc21 [Table 3: —CH2CCMe; cis-3-MeOcBu; CH/N]
IC50 (Table 3, HCT116, 72 hours): < 500 nM

CC#CCN1C(=O)c2ccccc2Sc2cc(NC(=O)N[C@H]3C[C@@H](O)C3)ccc21 [Table 3: —CH2CCMe; cis-3-OH-cBu; CH/CH]
IC50 (Table 3, HCT116, 72 hours): < 500 nM

CC#CCN1C(=O)c2ccccc2Sc2cc(NC(=O)N[C@H]3C[C@@H](O)C3)cnc21 [Table 3: —CH2CCMe; cis-3-OH-cBu; CH/N]
IC50 (Table 3, HCT116, 72 hours): < 500 nM

CC#CCN1C(=O)c2ccccc2Sc2cc(NC(=O)NC3COC3)ccc21 [Table 3: —CH2CCMe; oxetan-3-yl; CH/CH]
IC50 (Table 3, HCT116, 72 hours): < 500 nM

CC#CCN1C(=O)c2ccccc2Sc2cc(NC(=O)N[C@H]3C[C@H](OC)C3)ccc21 [Table 3: —CH2CCMe; trans-3-MeOcBu; CH/CH]
IC50 (Table 3, HCT116, 72 hours): < 500 nM

CC#CCN1C(=O)c2ccccc2Sc2cc(NC(=O)N[C@H]3C[C@H](O)C3)ccc21 [Table 3: —CH2CCMe; trans-3-OH-cBu; CH/CH]
IC50 (Table 3, HCT116, 72 hours): < 500 nM

CC#CCN1C(=O)c2ccccc2Sc2cc(NC(=O)N[C@H]3C[C@H](O)C3)cnc21 [Table 3: —CH2CCMe; trans-3-OH-cBu; CH/N]
IC50 (Table 3, HCT116, 72 hours): < 500 nM

CC#CCN1C(=O)c2ccccc2Sc2cc(NC(=S)Nc3cccc(OCF)c3)ccc21 [Table 4: —CH2CCMe; 3-FH2COPh; CH]
IC50 (Table 4, HCT116, 72 hours): < 500 nM

CC#CCN1C(=O)c2ccccc2Sc2cc(NC(=S)Nc3cccc(OCF)c3)cnc21 [Table 4: —CH2CCMe; 3-FH2COPh; N]
IC50 (Table 4, HCT116, 72 hours): < 500 nM

CC#CCN1C(=O)c2ccccc2Sc2cc(NC(=S)NC3CC(COC)C3)ccc21 (centres unmarked) [Table 4: —CH2CCMe; 3-MeOCH2-cBu; CH]
IC50 (Table 4, HCT116, 72 hours): < 500 nM

CC#CCN1C(=O)c2ccccc2Sc2cc(NC(=S)NC3CC(COC)C3)cnc21 (centres unmarked) [Table 4: —CH2CCMe; 3-MeOCH2-cBu; N]
IC50 (Table 4, HCT116, 72 hours): < 500 nM

CC#CCN1C(=O)c2ccccc2Sc2cc(NC(=S)Nc3cccc(OC)c3)ccc21 [Table 4: —CH2CCMe; 3-MeOPh; CH]
IC50 (Table 4, HCT116, 72 hours): < 500 nM

CC#CCN1C(=O)c2ccccc2Sc2cc(NC(=S)Nc3cccc(OC)c3)cnc21 [Table 4: —CH2CCMe; 3-MeOPh; N]
IC50 (Table 4, HCT116, 72 hours): < 500 nM

CC#CCN1C(=O)c2ccccc2Sc2cc(NC(=S)Nc3ccc(OC(F)F)cc3)ccc21 [Table 4: —CH2CCMe; 4-F2HCOPh; CH, 1-(10-(But-2-yn-1-yl)-11-oxo-10,11-dihydrodibenzo[b,f][1,4]thiazepin-7-yl)-3-(4-(difluoromethoxy)phenyl)thiourea]
IC50 (Homo sapiens, HCT-116, Table 4, HCT116, 72 hours): < 500 nM

CC#CCN1C(=O)c2ccccc2Sc2cc(NC(=S)Nc3ccc(OC(F)F)cc3)cnc21 [Table 4: —CH2CCMe; 4-F2HCOPh; N]
IC50 (Table 4, HCT116, 72 hours): < 500 nM

CC#CCN1C(=O)c2ccccc2Sc2cc(NC(=S)Nc3ccc(OCF)cc3)cnc21 [Table 4: —CH2CCMe; 4-FH2COPh; N]
IC50 (Table 4, HCT116, 72 hours): < 500 nM

CC#CCN1C(=O)c2ccccc2Sc2cc(NC(=S)Nc3ccc(OC)cc3)ccc21 [Table 4: —CH2CCMe; 4-MeOPh; CH]
IC50 (Table 4, HCT116, 72 hours): < 500 nM

CC#CCN1C(=O)c2ccccc2Sc2cc(NC(=S)Nc3ccc(OC)cc3)cnc21 [Table 4: —CH2CCMe; 4-MeOPh; N]
IC50 (Table 4, HCT116, 72 hours): < 500 nM

CC#CCN1C(=O)c2ccccc2Sc2cc(NC(=S)Nc3ccc(OC)nc3)cnc21 [Table 4: —CH2CCMe; 6-MeO-pyridin-3-yl; N]
IC50 (Table 4, HCT116, 72 hours): < 500 nM

CC#CCN1C(=O)c2ccccc2Sc2cc(NC(=S)N[C@H]3C[C@@H](OC)C3)ccc21 [Table 4: —CH2CCMe; cis-3-MeOcBu; CH]
IC50 (Table 4, HCT116, 72 hours): < 500 nM

CC#CCN1C(=O)c2ccccc2Sc2cc(NC(=S)N[C@H]3C[C@@H](OC)C3)cnc21 [Table 4: —CH2CCMe; cis-3-MeOcBu; N]
IC50 (Table 4, HCT116, 72 hours): < 500 nM

CC#CCN1C(=O)c2ccccc2Sc2cc(NC(=S)N[C@H]3C[C@@H](O)C3)ccc21 [Table 4: —CH2CCMe; cis-3-OH-cBu; CH]
IC50 (Table 4, HCT116, 72 hours): < 500 nM

CC#CCN1C(=O)c2ccccc2Sc2cc(NC(=S)N[C@H]3C[C@@H](O)C3)cnc21 [Table 4: —CH2CCMe; cis-3-OH-cBu; N]
IC50 (Table 4, HCT116, 72 hours): < 500 nM

CC#CCN1C(=O)c2ccccc2Sc2cc(NC(=S)NC3COC3)ccc21 [Table 4: —CH2CCMe; oxetan-3-yl; CH]
IC50 (Table 4, HCT116, 72 hours): < 500 nM

CC#CCN1C(=O)c2ccccc2Sc2cc(NC(=S)NC3COC3)cnc21 [Table 4: —CH2CCMe; oxetan-3-yl; N]
IC50 (Table 4, HCT116, 72 hours): < 500 nM

CC#CCN1C(=O)c2ccccc2Sc2cc(NC(=S)N[C@H]3C[C@H](OC)C3)ccc21 [Table 4: —CH2CCMe; trans-3-MeOcBu; CH]
IC50 (Table 4, HCT116, 72 hours): < 500 nM
